Data on 33 compounds can be found in US20160159789A1, “SUBSTITUTED PYRAZOLOPYRIDINES” (BAYER PHARMA AKTIENGESELLSCHAFT, priority 2013, published 2016).

The assay concerns the target T1, human full-length MKNK1 (Homo sapiens, UniProt Q9BUB5, T385D).
T1 construct: purchased Carna Biosciences 02-145; host or cells: insect cells (baculovirus expression system)
The assay can be described thus: MKNK1 kinase high ATP assay (TR-FRET). The class given is biochemical. Conditions: high ATP (2 mM final), 15 min preincubation with enzyme, GST-MKNK1 (T344D). Put shortly:
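GST-tagged full-length human MKNK1 from insect cells, preincubated 15 min with compound at 22° C in HEPES pH 7.5/MgCl2/DTT buffer, then reacted 30 min with 2 mM ATP and 0.06 μM biotinylated peptide (final). Phosphopeptide detected by TR-FRET (anti-pS6 pSer236/Eu-ProteinG, streptavidin-XL665), 665/620 ratio normalised to no-enzyme and no-inhibitor controls.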
A general note: In TR-FRET formats the signal depends on donor and acceptor labels being close together.

T1 sequence (Q9BUB5 1-424 isoform Q9BUB5-2 T344D): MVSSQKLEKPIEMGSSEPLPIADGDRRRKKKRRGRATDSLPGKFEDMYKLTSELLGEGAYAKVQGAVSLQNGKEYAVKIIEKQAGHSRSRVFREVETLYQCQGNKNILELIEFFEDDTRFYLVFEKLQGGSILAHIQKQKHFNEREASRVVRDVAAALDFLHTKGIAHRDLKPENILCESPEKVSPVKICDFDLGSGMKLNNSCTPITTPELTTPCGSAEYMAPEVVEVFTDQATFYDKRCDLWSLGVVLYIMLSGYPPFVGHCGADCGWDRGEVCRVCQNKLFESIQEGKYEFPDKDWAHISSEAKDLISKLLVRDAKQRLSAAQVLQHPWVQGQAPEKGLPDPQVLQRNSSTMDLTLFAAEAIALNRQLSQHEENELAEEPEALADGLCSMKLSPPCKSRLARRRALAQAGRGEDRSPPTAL

With `N#CC1CN(C(=O)[C@H]2CCc3c(sc4ncnc(Nc5cnc6[nH]ncc6c5)c34)C2)C1` [Example 99, 1-{[(7S)-4-(1H-Pyrazolo[3,4-b]pyridin-5-ylamino)-5,6,7,8-tetrahydro[1]benzothieno[2,3-d]pyrimidin-7-yl]carbonyl}azetidine-3-carbonitrile], the IC50 (in general, the concentration needed to halve the response being measured) came to 14.5 nM.

Compound `CN(C)C1CCN(C(=O)[C@H]2CCc3c(sc4ncnc(Nc5cnc6[nH]ncc6c5)c34)C2)CC1` [Example 107, [4-(Dimethylamino)piperidin-1-yl][(7S)-4-(1H-pyrazolo[3,4-b]pyridin-5-ylamino)-5,6,7,8-tetrahydro[1]benzothieno[2,3-d]pyrimidin-7-yl]methanone] yielded an IC50 of 13.3 nM.

Compound `CCN(C)C(=O)[C@H]1CCc2c(sc3ncnc(Nc4cnc5[nH]ncc5c4)c23)C1` [Example 92, (7S)—N-Ethyl-N-methyl-4-(1H-pyrazolo[3,4-b]pyridin-5-ylamino)-5,6,7,8-tetrahydro[1]benzothieno[2,3-d]pyrimidine-7-carboxamide] registered an IC50 of 15.4 nM. This IC50 and that of the compound before are within 1.5-fold of each other.

For the compound `CCc1[nH]c2ncnc(Nc3cc4cn[nH]c4cn3)c2c1C` [Example 8, N-(6-Ethyl-5-methyl-7H-pyrrolo[2,3-d]pyrimidin-4-yl)-1H-pyrazolo[3,4-c]pyridin-5-amine], the IC50 was found to be 11.5 nM. The IC50 values of the last two compounds are within 1.5-fold of each other.

As to `CN(CCN(C)C(=O)c1cc2c(Nc3cc4cn[nH]c4cn3)ncnc2[nH]1)Cc1ccccc1` [Example 78, N-{2-[Benzyl(methyl)amino]ethyl}-N-methyl-4-(1H-pyrazolo[3,4-c]pyridin-5-ylamino)-7H-pyrrolo[2,3-d]pyrimidine-6-carboxamide], the midpoint of inhibition, the IC50, lay at 7.4 nM.

`CCOC(=O)c1cc2c(Nc3cc4cn[nH]c4cn3)ncnc2[nH]1` [Example 10, Ethyl 4-(1H-pyrazolo[3,4-c]pyridin-5-ylamino)-7H-pyrrolo[2,3-d]pyrimidine-6-carboxylate] returned an IC50 of 6.6 nM.

Take `O=C(c1cc2c(Nc3cc4cn[nH]c4cn3)ncnc2[nH]1)N1CCOCC1` [Example 21, Morpholin-4-yl[4-(1H-pyrazolo[3,4-c]pyridin-5-ylamino)-7H-pyrrolo[2,3-d]pyrimidin-6-yl]methanone]: half-maximal inhibition (IC50) required 4.2 nM.

As to `CN(C)C(=O)C1CCc2[nH]c3ncnc(Nc4cnc5[nH]ncc5c4)c3c2C1` (racemic) [Example 30, (RS)—N,N-Dimethyl-4-(1H-pyrazolo[3,4-b]pyridin-5-ylamino)-6,7,8,9-tetrahydro-5H-pyrimido[4,5-b]indole-6-carboxamide], 50.7 nM corresponded to half-maximal inhibition (IC50).

In turn, `C[C@H]1COCCN1C(=O)c1[nH]c2ncnc(Nc3cc4cn[nH]c4cn3)c2c1Br` [Example 121, [5-Bromo-4-(1H-pyrazolo[3,4-c]pyridin-5-ylamino)-7H-pyrrolo[2,3-d]pyrimidin-6-yl][(3S)-3-methylmorpholin-4-yl]methanone] displayed an IC50 of 30.1 nM.

Consider `CN(C)CCCNC(=O)c1[nH]c2ncnc(Nc3cc4cn[nH]c4cn3)c2c1Br` [Example 118, 5-Bromo-N-[3-(dimethylamino)propyl]-4-(1H-pyrazolo[3,4-c]pyridin-5-ylamino)-7H-pyrrolo[2,3-d]pyrimidine-6-carboxamide], for which the IC50 is 8.1 nM.

On to `COCCN(CCOC)C(=O)[C@H]1CCc2c(sc3ncnc(Nc4cc5cn[nH]c5cn4)c23)C1` [Example 56, (7S)—N, N-Bis(2-methoxyethyl)-4-(1H-pyrazolo[3,4-c]pyridin-5-ylamino)-5,6,7,8-tetrahydro[1]benzothieno[2,3-d]pyrimidine-7-carboxamide], for which the IC50 stood at 8.1 nM.

In the case of `FC(F)(F)c1c[nH]c2ncnc(Nc3cnc4[nH]ncc4c3)c12` [Example 15, N-[5-(Trifluoromethyl)-7H-pyrrolo[2,3-d]pyrimidin-4-yl]-1H-pyrazolo[3,4-b]pyridin-5-amine], the IC50 was 28.8 nM.

The compound `CN(C)CCCNC(=O)c1[nH]c2ncnc(Nc3cnc4[nH]ncc4c3)c2c1Br` [Example 125, 5-Bromo-N-[3-(dimethylamino)propyl]-4-(1H-pyrazolo[3,4-b]pyridin-5-ylamino)-7H-pyrrolo[2,3-d]pyrimidine-6-carboxamide] had an IC50 of 29.2 nM.

Take `O=C([C@H]1CCc2c(sc3ncnc(Nc4cc5cn[nH]c5cn4)c23)C1)N1CC2(COC2)C1` [Example 83, 2-Oxa-6-azaspiro[3.3]hept-6-yl[(7S)-4-(1H-pyrazolo[3,4-c]pyridin-5-ylamino)-5,6,7,8-tetrahydro[1]benzothieno[2,3-d]pyrimidin-7-yl]methanone]: inhibition was half-maximal at 6.9 nM (IC50). Against the preceding compound, the IC50 is about 4.2-fold lower.

As to `CCc1c[nH]c2ncnc(Nc3cnc4[nH]ncc4c3)c12` [Example 5, N-(5-Ethyl-7H-pyrrolo[2,3-d]pyrimidin-4-yl)-1H-pyrazolo[3,4-b]pyridin-5-amine], the IC50 is 12.2 nM. Compared with the last compound, the IC50 is about 1.8-fold higher.

Turning to `COc1nc2[nH]ncc2cc1Nc1ncnc2[nH]c(C(=O)N3CCOCC3)c(Br)c12` [Example 67, {5-Bromo-4-[(6-methoxy-1H-pyrazolo[3,4-b]pyridin-5-yl)amino]-7H-pyrrolo[2,3-d]pyrimidin-6-yl}(morpholin-4-yl)methanone], the IC50 was 15.2 nM.

Compound `COc1nc2[nH]ncc2cc1Nc1ncnc2sc3c(c12)CC[C@H](C(=O)N1CCOCC1)C3` [Example 34] came in with an IC50 of 2.5 nM. Compared with the last compound, the IC50 is about 6.1-fold lower.

As to `CN(C)CCN(C)C(=O)c1cc2c(Nc3cc4cn[nH]c4cn3)ncnc2[nH]1` [Example 77, N-[2-(Dimethylamino)ethyl]-N-methyl-4-(1H-pyrazolo[3,4-c]pyridin-5-ylamino)-7H-pyrrolo[2,3-d]pyrimidine-6-carboxamide], the IC50 was found to be 23.1 nM.

Take `CN(C)C1CN(C(=O)[C@H]2CCc3c(sc4ncnc(Nc5cnc6[nH]ncc6c5)c34)C2)C1` [Example 142, [3-(Dimethylamino)azetidin-1-yl][(7S)-4-(1H-pyrazolo[3,4-b]pyridin-5-ylamino)-5,6,7,8-tetrahydro[1]benzothieno[2,3-d]pyrimidin-7-yl]methanone]: the IC50 was 11.8 nM. This IC50 lies about 2-fold lower than the previous one.

In turn, `CCN(C)C(=O)[C@H]1CCc2c(sc3ncnc(Nc4cc5cn[nH]c5nc4O)c23)C1` [Example 112, (7S)—N-Ethyl-4-[(6-hydroxy-1H-pyrazolo[3,4-b]pyridin-5-yl)amino]-N-methyl-5,6,7,8-tetrahydro[1]benzothieno[2,3-d]pyrimidine-7-carboxamide] registered an IC50 of 4.6 nM. This IC50 lies about 2.6-fold lower than the previous one.

In turn, `c1ccc(CCc2nc3c(Nc4cc5cn[nH]c5cn4)ncnc3s2)cc1` [Example 79, 2-(2-Phenylethyl)-N-(1H-pyrazolo[3,4-c]pyridin-5-yl)[1,3]thiazolo[5,4-d]pyrimidin-7-amine] registered an IC50 of 1350 nM. This IC50 is about 290-fold higher than that of the compound before.

`O=C(c1cc2c(Nc3cc4cn[nH]c4cn3)ncnc2[nH]1)N1CCCC1` [Example 19, [4-(1H-Pyrazolo[3,4-c]pyridin-5-ylamino)-7H-pyrrolo[2,3-d]pyrimidin-6-yl](pyrrolidin-1-yl)methanone] registered an IC50 of 5.8 nM.

In turn, `C[C@H]1COCCN1C(=O)[C@H]1CCc2c(sc3ncnc(Nc4cnc5[nH]ncc5c4)c23)C1` [Example 104, [(3S)-3-Methylmorpholin-4-yl][(7S)-4-(1H-pyrazolo[3,4-b]pyridin-5-ylamino)-5,6,7,8-tetrahydro[1]benzothieno[2,3-d]pyrimidin-7-yl]methanone] yielded an IC50 of 28.7 nM.

On to `c1nc(Nc2cc3cn[nH]c3cn2)c2cc[nH]c2n1` [Example 2, N-(7H-Pyrrolo[2,3-d]pyrimidin-4-yl)-1H-pyrazolo[3,4-c]pyridin-5-amine], for which the 50% inhibitory concentration (IC50) turned out to be 23.8 nM.

Turning to `CN1CCN(C(=O)C2CCc3[nH]c4ncnc(Nc5cc6cn[nH]c6cn5)c4c3C2)CC1` (racemic) [Example 33, (RS)-(4-Methylpiperazin-1-yl)[4-(1H-pyrazolo[3,4-c]pyridin-5-ylamino)-6,7,8,9-tetrahydro-5H-pyrimido[4,5-b]indol-6-yl]methanone], the IC50 was 90.4 nM.

Regarding `COc1nc2[nH]ncc2cc1Nc1ncnc2sc3c(c12)CC[C@H](C(=O)N1C[C@@H]2C[C@H]1CO2)C3` [Example 40], the IC50 is 2.5 nM.

Compound `O=C([C@H]1CCc2c(sc3ncnc(Nc4cc5cn[nH]c5nc4O)c23)C1)N1C[C@@H]2C[C@H]1CO2` [Example 115] returned an IC50 of 6.9 nM.

`CN(C)C1CCN(C(=O)[C@H]2CCc3c(sc4ncnc(Nc5cc6cn[nH]c6nc5O)c34)C2)CC1` [Example 117, [4-(Dimethylamino)piperidin-1-yl]{(7S)-4-[(6-hydroxy-1H-pyrazolo[3,4-b]pyridin-5-yl)amino]-5,6,7,8-tetrahydro[1]benzothieno[2,3-d]pyrimidin-7-yl}methanone] showed an IC50 of 1.4 nM. This IC50 is about 4.9-fold lower than that of the compound before.

`COc1nc2[nH]ncc2cc1Nc1ncnc2sc3c(c12)CC[C@H](C(=O)N1CC(N(C)C)C1)C3` [Example 141, [3-(Dimethylamino)azetidin-1-yl]{(7S)-4-[(6-methoxy-1H-pyrazolo[3,4-b]pyridin-5-yl)amino]-5,6,7,8-tetrahydro[1]benzothieno[2,3-d]pyrimidin-7-yl}methanone] came in with an IC50 of 1.2 nM.

Compound `CCCN(C)C(=O)[C@H]1CCc2c(sc3ncnc(Nc4cc5cn[nH]c5cn4)c23)C1` [Example 81, (7S)—N-Methyl-N-propyl-4-(1H-pyrazolo[3,4-c]pyridin-5-ylamino)-5,6,7,8-tetrahydro[1]benzothieno[2,3-d]pyrimidine-7-carboxamide] had an IC50 of 16.1 nM.

`CN1CCN(C(=O)[C@H]2CCc3c(sc4ncnc(Nc5cc6cn[nH]c6nc5O)c34)C2)CC1` [Example 116] came in with an IC50 of 2.1 nM. Against the preceding compound, the IC50 is about 7.7-fold lower.

As for `CN(C)C(=O)CNC(=O)c1cc2c(Nc3cc4cn[nH]c4cn3)ncnc2[nH]1` [Example 76, N-[2-(Dimethylamino)-2-oxoethyl]-4-(1H-pyrazolo[3,4-c]pyridin-5-ylamino)-7H-pyrrolo[2,3-d]pyrimidine-6-carboxamide], the midpoint of inhibition, the IC50, lay at 71.5 nM.

Regarding `CN1CCN(C(=O)C2CCc3c(sc4ncnc(Nc5cc6cn[nH]c6cn5)c34)C2)CC1` (racemic) [Example 26, (RS)-(4-Methylpiperazin-1-yl)[4-(1H-pyrazolo[3,4-c]pyridin-5-ylamino)-5,6,7,8-tetrahydro[1]benzothieno[2,3-d]pyrimidin-7-yl]methanone], the IC50 worked out at 38.2 nM.
